Measurements published in patent US11396517B1, “Exo-aza spiro inhibitors of menin-MLL interaction” (Janssen Pharmaceutica NV, priority 2017, dated 2022).
Where two headings read alike, the source gives them in different places.

Legend:
MOLM14 = experiment: Proliferation assay B (spheroid assay) MOLM14; type: cell-based, human; conditions: MOLM14 cells, confluence at day 8, absolute IC50, read-out: (3b) Spheroid assay MOLM14 (IC50(μM)) Assay B
Outline: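 Leukemia cells grown as spheroids in ultra-low-attachment round-bottom wells with compound at 0.3% DMSO for 8 d at 37 °C. Confluence imaged at day 8 as spheroid size, normalized between DMSO and 1 μM staurosporine controls; absolute IC50 from sigmoidal fit with bounds fixed at 0 and 100%.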

menin = target: T1, menin (Homo sapiens, UniProt O00255, T541A); experiment: Menin/MLL homogenous time-resolved fluorescence (HTRF) assay; type: binding; conditions: location 2; read-out: (2) location 2 Menin HTRF assay (IC50 (nM))
T1 construct: Menin (a.a. 1-610-6×his tag)
T1 sequence (O00255 with tags, fused parts or gaps T541A): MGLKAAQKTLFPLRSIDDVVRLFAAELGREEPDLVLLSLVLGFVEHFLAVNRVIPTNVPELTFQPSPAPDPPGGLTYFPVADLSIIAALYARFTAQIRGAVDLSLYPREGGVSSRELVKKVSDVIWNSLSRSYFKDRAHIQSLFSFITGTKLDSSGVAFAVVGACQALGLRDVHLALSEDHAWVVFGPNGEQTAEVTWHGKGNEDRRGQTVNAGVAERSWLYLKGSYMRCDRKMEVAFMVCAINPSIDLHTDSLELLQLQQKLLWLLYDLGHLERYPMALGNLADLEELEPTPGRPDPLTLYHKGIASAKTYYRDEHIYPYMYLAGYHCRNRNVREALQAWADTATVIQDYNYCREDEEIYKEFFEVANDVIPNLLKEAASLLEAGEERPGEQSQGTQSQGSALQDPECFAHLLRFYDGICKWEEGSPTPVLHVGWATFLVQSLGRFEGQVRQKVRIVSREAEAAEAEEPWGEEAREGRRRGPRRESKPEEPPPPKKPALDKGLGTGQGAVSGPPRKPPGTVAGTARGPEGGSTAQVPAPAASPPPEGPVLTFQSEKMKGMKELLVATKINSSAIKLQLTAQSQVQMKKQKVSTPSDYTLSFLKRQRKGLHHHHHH
Outline: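 Terbium-labeled menin (aa 1-610, His-tagged; […]) preincubated 5 min with compound, then 75 nM FITC-MBM1 peptide for 15 min, ambient, Tris pH 7.5, 0.5% DMSO. HTRF 520/490 ratio; 11-point 3-fold titration; IC50 from % inhibition fit.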

MV-4-11 = experiment: Proliferation assay B (spheroid assay) MV-4-11; type: cell-based, human; conditions: MV-4-11 cells, confluence at day 8, absolute IC50, read-out: (3b) Spheroid assay MV-4--11 (IC50(μM)) Assay B
Experimental: 3b) Proliferation Assay B
The anti-proliferative effect of menin/MLL protein/protein interaction inhibitor test compounds was assessed in human leukemia cell lines. The cell lines MV-4-11 and MOLM14 harbor MILL translocations and express the MILL fusion proteins MLL-AF4 and MLL-AF9, respectively, as well as the wildtype protein from the second allele. […] K562 was used as a control cell line containing two MLL wildtype alleles in order to exclude compounds that display general cytotoxic effects.
MV-4-11 and MOLM14 were cultured in RPMI-1640 (Sigma Aldrich) supplemented with 10% fetal bovine serum (HyClone), 2 mM L-glutamine (Sigma Aldrich) and 50 μg/ml gentamycin (Gibco). K562 were propagated in RPMI-1640 (Sigma Aldrich) supplemented with 20% fetal bovine serum (HyClone), 2 mM L-glutamine (Sigma Aldrich) and 50 μg/ml gentamycin (Gibco).
In order to assess the anti-proliferative effects, 1,500 MV-4-11, 300 MOLM14 cells or 750 K562 cells were seeded in 200 μl media per well in 96-well round bottom, ultra-low attachment plates (Costar, catalogue number 7007). Cell seeding numbers were chosen based on growth curves to ensure linear growth throughout the experiment. Test compounds were added at different concentrations and the DMSO content was normalized to 0.3%. Cells were incubated for 8 d at 37° C. and 5% CO2. Spheroid like growth was measured in real-time by live-cell imaging (IncuCyteZOOM, Essenbio, 4× objective) acquiring images at day 8. Confluence (%) as a measure of spheroid size was determined using an integrated analysis tool.
In order to determine the effect of the test compounds over time, the confluence in each well as a measure of spheroid size, was calculated. Confluence […] at the beginning of the experiment (t=0) was used as baseline for the calculation.
Absolute IC50 values were calculated as percent change in confluence as follows:
LC=Low Control: cells treated with 1 μM of the cytotoxic agent staurosporin
HC=High Control: Mean confluence (%) (DMSO treated cells) % Effect=100−(100*(Sample−LC)/(HC−LC))
To determine the IC50 a curve is fitted to the plot of % Effect vs Log 10 compound concentration using a sigmoidal fit with a variable slope and fixing the maximum to 100% and the minimum to 0%.

| SMILES | IC50 (MOLM14) [µM] | IC50 (menin) [nM] | IC50 (MV-4-11) [µM] | IC50 (MOLM14; Homo sapiens, MOLM-14, 192 h) [µM] | IC50 (MV-4-11; Homo sapiens, MV4-11, 192 h) [µM] |
| --- | --- | --- | --- | --- | --- |
| O=C(c1ccc(NC2CC3(CCN(c4ncnc5sc(CC(F)(F)F)cc45)C3)C2)cc1)N1CCOCC1 (single isomer, unassigned) [Compound 334] | > 3.75 | 256 | > 3.75 |  |  |
| CS(=O)(=O)NC(=O)c1ccc(NC2CC3(CCN(c4ncnc5sc(CC(F)(F)F)cc45)C3)C2)cc1 (single isomer, unassigned) [Compound 361] | > 3.75 | 61.7 | > 3.75 |  |  |
| CS(=O)(=O)NC(=O)c1ccc(NC2CC3(CCN(c4ncnc5sc(CC(F)(F)F)cc45)C3)C2)cc1 (single isomer, unassigned) [Compound 362] |  | 836 |  | > 3.75 | > 3.75 |
| COC[C@@H]1CN(C(=O)c2ccc(NC3CC4(CCN(c5ncnc6sc(CC(F)(F)F)cc56)C4)C3)cc2)CCO1 (single isomer, unassigned) [Compound 410] |  | 68.7 |  | > 3.75 | > 3.75 |
| O=C(c1ccc(NC2CC3(CCN(c4ncnc5sc(CC(F)(F)F)cc45)C3)C2)cc1)N1CC2(COC2)C1 (single isomer, unassigned) [Compound 413] |  | 2290 |  | > 3.75 | > 3.75 |
| Cn1c(=O)[nH]c2ccc(CN[C@H]3CCC4(C3)CN(c3ncnc5sc(CC(F)(F)F)cc35)C4)cc21 (stereo in doubt) [Compound 111] |  | 65 |  | 3.06 | 0.62 |
| COc1nc(N2CC3(CC[C@H](NCc4cccc(-c5cc[nH]n5)c4)C3)C2)c2cc(CC(F)(F)F)sc2n1 (stereo in doubt) [Compound 116] |  | 30.6 |  | 2.32 | 2.06 |
| CNc1nc(N2CC3(CC[C@@H](NCc4cccc(-c5cc[nH]n5)c4)C3)C2)c2cc(CC(F)(F)F)sc2n1 (stereo in doubt) [Compound 121] |  | 32.7 |  | 1.6 | 0.98 |
| CNc1nc(N2CC3(CC[C@H](NCc4cccc(-c5cc[nH]n5)c4)C3)C2)c2cc(CC(F)(F)F)sc2n1 (stereo in doubt) [Compound 122] |  | 49.3 |  | 1.21 | 0.44 |
| N#CCc1ccc(N[C@H]2CC[C@]3(CCN(c4ncnc5sc(CC(F)(F)F)cc45)C3)C2)cc1 (stereo in doubt) [Compound 147] |  | 45.3 |  | 2.9 | 2.07 |
| CN1CCC(Nc2cc(NC3CC4(CCN(c5ncnc6sc(CC(F)(F)F)cc56)C4)C3)ccc2C#N)CC1 (stereo not drawn) [Compound 82] |  | 73.6 |  | 0.93 | 1.14 |
| CNC(=O)c1ccc(NC2CCC3(C2)CN(c2ncnc4sc(CC(F)(F)F)cc24)C3)cc1 (stereo not drawn) [Compound 96] |  | 43.4 |  | 1.09 | 1.02 |
| N#CCc1ccc(NC2CCC3(CCN(c4ncnc5sc(CC(F)(F)F)cc45)C3)C2)cc1F (stereo not drawn) [Compound 129] |  | 34.3 |  | > 3.75 | 3.81 |
| CC(C)(C#N)c1ccc(NC2CCC3(CCN(c4ncnc5sc(CC(F)(F)F)cc45)C3)C2)cc1 (stereo not drawn) [Compound 130] |  | 67.1 |  | > 3.75 | > 3.75 |
| N#CC1(c2ccc(NC3CCC4(CCN(c5ncnc6sc(CC(F)(F)F)cc56)C4)C3)cc2)CC1 (stereo not drawn) [Compound 131] |  | 49.1 |  | > 3.75 | 3.3 |
| FC(F)(F)Cc1cc2c(N3CCC4(CC(Nc5ccccn5)C4)C3)ncnc2s1 (stereo not drawn) [Compound 151] |  | 31 |  | 2.48 | 2.03 |
| FC(F)(F)Cc1cc2c(N3CC4(CCC(NC5(c6ccccc6)CC5)C4)C3)ncnc2s1 (stereo not drawn) [Compound 282] |  | 92.8 |  | > 3.75 | > 3.75 |
| Cc1cc2ccc(NC3CCC4(C3)CN(c3ncnc5sc(CC(F)(F)F)cc35)C4)cc2[nH]1 (stereo not drawn) [Compound 289] |  | 42.7 |  | > 3.75 | > 3.75 |
| O=c1[nH]c2ccc(NC3CCC4(C3)CN(c3ncnc5sc(CC(F)(F)F)cc35)C4)cc2o1 (stereo not drawn) [Compound 295] |  | 97.7 |  | > 3.75 | > 3.75 |
| O=c1[nH]c2ccc(NC3CCC4(C3)CN(c3ncnc5sc(CC(F)(F)F)cc35)C4)cc2[nH]1 (stereo not drawn) [Compound 298] |  | 54.3 |  | > 3.75 | > 3.75 |

Molecules with a lower IC50 (menin), results first:

| IC50 (MOLM14) [µM] | IC50 (menin) [nM] | IC50 (MV-4-11) [µM] | IC50 (MOLM14; Homo sapiens, MOLM-14, 192 h) [µM] | IC50 (MV-4-11; Homo sapiens, MV4-11, 192 h) [µM] | SMILES |
| --- | --- | --- | --- | --- | --- |
| 1.55 | 5.2 | 0.46 |  |  | O=C(c1ccc(NC2CC3(CCN(c4ncnc5sc(CC(F)(F)F)cc45)C3)C2)cc1)N1CCOCC1 (single isomer, unassigned) [Compound 335] |
|  | 5.5 |  | 1.91 | 0.62 | Cn1c(=O)[nH]c2ccc(CN[C@@H]3CCC4(C3)CN(c3ncnc5sc(CC(F)(F)F)cc35)C4)cc21 (stereo in doubt) [Compound 110] |
|  | 9.3 |  | 2.77 | 1.4 | N#CCc1ccc(N[C@@H]2CC[C@@]3(CCN(c4ncnc5sc(CC(F)(F)F)cc45)C3)C2)cc1 (stereo in doubt) [Compound 144] |
|  | 22.6 |  | > 3.75 | 3.55 | N#CCc1ccc(N[C@H]2CC[C@@]3(CCN(c4ncnc5sc(CC(F)(F)F)cc45)C3)C2)cc1 (stereo in doubt) [Compound 145] |
|  | 8.7 |  | > 3.75 | > 3.75 | NC(=O)Cn1c(=O)[nH]c2cc(CNC3CCC4(C3)CN(c3ncnc5sc(CC(F)(F)F)cc35)C4)ccc21 (stereo not drawn) [Compound 53, 2-(2-oxo-5-(((2-(6-(2,2,2-trifluoroethyl)thieno[2,3-d]-pyrimidin-4-yl)-2-azaspiro[3.4]octan-6-yl)amino)methyl)-2,3-dihydro-1H-benzo[d]-imidazol-1-yl)acetamide] |
|  | 2.7 |  | 1.08 | 0.3 | CNC(=O)c1ccc(NC2CC3(CCN(c4ncnc5sc(CC(F)(F)F)cc45)C3)C2)nc1 (stereo not drawn) [Compound 70] |
|  | 6.8 |  | 0.65 | 0.43 | CN1CCC(Oc2cc(NC3CC4(CCN(c5ncnc6sc(CC(F)(F)F)cc56)C4)C3)ccc2C#N)CC1 (stereo not drawn) [Compound 81] |
|  | 4.1 |  | > 3.75 | 1.41 | CNC(=O)c1ccc(NC2CCC3(CCN(c4ncnc5sc(CC(F)(F)F)cc45)C3)C2)cc1 (stereo not drawn) [Compound 133] |
| 2.35 | 13 | 0.67 |  |  | FC(F)(F)Cc1cc2c(N3CCC4(CC(Nc5ccncc5)C4)C3)ncnc2s1 (stereo not drawn) [Compound 154] |
